Assay results reported in ChEMBL document CHEMBL1649076, “Discovery of 5-chloro-N2-[(1S)-1-(5-fluoropyrimidin-2-yl)ethyl]-N4-(5-methyl-1H-pyrazol-3-yl)pyrimidine-2,4-diamine (AZD1480) as a novel inhibitor of the Jak/Stat pathway” (J Med Chem, 2011).
Values belong to the compound of their own block, whether it stands above or below them.

Key:
[1] = target: T1, Tyrosine-protein kinase JAK2 (Homo sapiens, UniProt O60674); experiment: Inhibition of JAK2 using Km ATP concentration
[2] = target: T1, Tyrosine-protein kinase JAK2; experiment: Inhibition of JAK2 using 5 mM of ATP
[3] = target: T2, Tyrosine-protein kinase JAK3 (Homo sapiens, UniProt P52333); experiment: Inhibition of JAK3 using 5 mM of ATP
T2 sequence (P52333 whole entry): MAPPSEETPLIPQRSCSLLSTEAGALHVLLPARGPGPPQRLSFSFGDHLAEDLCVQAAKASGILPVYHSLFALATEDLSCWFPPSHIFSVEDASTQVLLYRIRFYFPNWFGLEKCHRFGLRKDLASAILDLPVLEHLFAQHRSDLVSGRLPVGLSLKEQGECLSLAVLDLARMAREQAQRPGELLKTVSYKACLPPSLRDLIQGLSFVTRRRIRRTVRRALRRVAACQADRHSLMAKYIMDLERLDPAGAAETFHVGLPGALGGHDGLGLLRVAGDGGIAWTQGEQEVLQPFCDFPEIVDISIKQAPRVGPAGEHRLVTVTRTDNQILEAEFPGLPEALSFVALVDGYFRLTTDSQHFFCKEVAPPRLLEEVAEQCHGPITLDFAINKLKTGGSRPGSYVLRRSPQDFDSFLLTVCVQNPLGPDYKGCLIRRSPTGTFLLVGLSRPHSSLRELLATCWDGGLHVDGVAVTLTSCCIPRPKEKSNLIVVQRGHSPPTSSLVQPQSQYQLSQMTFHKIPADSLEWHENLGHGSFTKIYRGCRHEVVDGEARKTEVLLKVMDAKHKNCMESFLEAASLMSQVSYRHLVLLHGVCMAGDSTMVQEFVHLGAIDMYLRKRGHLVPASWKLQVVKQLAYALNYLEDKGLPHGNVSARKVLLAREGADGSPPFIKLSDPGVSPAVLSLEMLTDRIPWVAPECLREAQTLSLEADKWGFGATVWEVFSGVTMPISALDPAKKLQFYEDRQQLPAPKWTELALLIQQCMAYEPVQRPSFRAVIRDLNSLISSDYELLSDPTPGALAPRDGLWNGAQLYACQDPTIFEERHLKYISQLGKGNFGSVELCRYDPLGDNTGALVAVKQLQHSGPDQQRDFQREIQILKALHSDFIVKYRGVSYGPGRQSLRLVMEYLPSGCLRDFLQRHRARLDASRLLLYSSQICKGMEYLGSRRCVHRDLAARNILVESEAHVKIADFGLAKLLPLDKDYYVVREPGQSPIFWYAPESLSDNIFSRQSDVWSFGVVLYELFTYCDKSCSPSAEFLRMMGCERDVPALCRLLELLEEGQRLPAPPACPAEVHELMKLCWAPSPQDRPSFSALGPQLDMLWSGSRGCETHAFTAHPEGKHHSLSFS

[4] = Growth inhibition of mouse BA/F3 cells expressing Tel-JAK2 kinase after 48 hrs by MTS assay; format: functional; settings: BaF3, 48 h
[5] = Aqueous equilibrium solubility of the compound at pH 7.4 by HPLC-UV analysis; format: physicochemical
[6] = Octanol-water partition coefficient, log D of the compound at pH 7.4 by shake flask method; format: physicochemical
Liver microsomes = experiment: Intrinsic clearance in rat liver microsomes assessed per mg of protein at 2 uM by LCMS/MS analysis; format: ADME, Microsome
[7] = Oral bioavailability in Han Wistar rat at 10 mg/kg; format: ADME, organism-based; settings: in vivo
[8] = Observed clearance in Han Wistar rat at 10 mg/kg, po and 3 mg/kg, iv; format: ADME, organism-based; settings: in vivo
[9] = Volume of distribution at steady state in Han Wistar rat at 10 mg/kg, po and 3 mg/kg, iv; format: ADME, organism-based; settings: in vivo, read-out: Vdss
[10] = Half life in Han Wistar rat at 10 mg/kg, po and 3 mg/kg, iv; format: ADME, organism-based; settings: in vivo
[11] = AUC (0 to 24 hrs) in Han Wistar rat at 10 mg/kg, po; format: ADME, organism-based; parameters: time < 24 hr, dose 10 mg/kg, route oral; settings: plasma
[12] = Observed clearance in CD1 mouse at 3 mg/kg, iv; format: ADME, organism-based; parameters: dose 3 mg/kg, route intravenous; settings: in vivo
[13] = Half life in CD1 mouse at 3 mg/kg, iv; format: ADME, organism-based; parameters: dose 3 mg/kg, route intravenous; settings: in vivo
[14] = Half life in CD1 mouse at 10 mg/kg, po; format: ADME, organism-based; parameters: dose 10 mg/kg, route oral; settings: in vivo
[15] = Volume of distribution at steady state in CD1 mouse at 3 mg/kg, iv; format: ADME, organism-based; parameters: dose 3 mg/kg, route intravenous; settings: in vivo, read-out: Vdss
[16] = AUC (0 to 12 hrs) in CD1 mouse at 10 mg/kg, po; format: ADME, organism-based; parameters: time < 12 hr, dose 10 mg/kg, route oral; settings: plasma
[17] = Oral bioavailability in CD1 mouse at 10 mg/kg; format: ADME, organism-based; settings: in vivo
[18] = Observed clearance in Beagle dog at 2.5 mg/kg, iv; format: ADME, organism-based, Canis lupus familiaris; parameters: dose 2.5 mg/kg, route intravenous; settings: in vivo
[19] = Half life in Beagle dog at 2.5 mg/kg, iv; format: ADME, organism-based, Canis lupus familiaris; parameters: dose 2.5 mg/kg, route intravenous; settings: in vivo
[20] = Half life in Beagle dog at 10 mg/kg, po; format: ADME, organism-based, Canis lupus familiaris; parameters: dose 10 mg/kg, route oral; settings: in vivo
[21] = Volume of distribution at steady state in Beagle dog at 2.5 mg/kg, iv; format: ADME, organism-based, Canis lupus familiaris; parameters: dose 2.5 mg/kg, route intravenous; settings: in vivo, read-out: Vdss
[22] = AUC (0 to 12 hrs) in Beagle dog at 10 mg/kg, po; format: ADME, organism-based, Canis lupus familiaris; parameters: time < 12 hr, dose 10 mg/kg, route oral; settings: plasma
[23] = Oral bioavailability in Beagle dog at 10 mg/kg; format: ADME, organism-based, Canis lupus familiaris; settings: in vivo
HEL = experiment: Growth inhibition of human HEL cells expressing Jak2 V617F mutant after 48 hrs by MTS assay; format: functional
[24] = Growth inhibition of human UKE1 cells expressing Jak2 V617F mutant after 48 hrs by MTS assay; format: functional; settings: UKE1, 48 h
[25] = target: High affinity nerve growth factor receptor (Homo sapiens, UniProt P04629); experiment: Inhibition of TrkA
[26] = Growth inhibition of human SET2 cells expressing Jak2 V617F mutant after 48 hrs by MTS assay; format: functional; settings: SET-2, 48 h
[27] = Growth inhibition of mouse BA/F3 cells expressing Tel-JAK3 kinase after 48 hrs by MTS assay; format: functional; settings: BaF3, 48 h
[28] = Growth inhibition of mouse BA/F3 cells expressing Tel-JAK1 kinase after 48 hrs by MTS assay; format: functional; settings: BaF3, 48 h
[29] = Growth inhibition of mouse BA/F3 cells expressing Tel-Tyk2 kinase after 48 hrs by MTS assay; format: functional; settings: BaF3, 48 h
Mus musculus [30] = experiment: Antitumor activity against mouse BA/F3 cells expressing Tel-JAK2 xenografted in NCr mouse assessed as reduction of phosphorylated Stat5 level in spleen at 10 mg/kg, po after 8 hrs by Western blotting; format: functional, BaF3; parameters: scale not given: the % may be the effect or the level left
Mus musculus [31] = experiment: Antitumor activity against mouse BA/F3 cells expressing Tel-JAK2 xenografted in NCr mouse assessed as reduction of phosphorylated Stat5 level in spleen at 5 mg/kg, po after 2 hrs by Western blotting; format: functional, BaF3; parameters: scale not given: the % may be the effect or the level left
Mus musculus [32] = experiment: Antitumor activity against mouse BA/F3 cells expressing Tel-JAK2 xenografted in NCr mouse assessed as reduction of phosphorylated Stat5 level in spleen at 5 mg/kg, po after 6 hrs by Western blotting; format: functional, BaF3; parameters: scale not given: the % may be the effect or the level left
[33] = Antitumor activity against mouse BA/F3 cells expressing Tel-JAK2-luc xenografted in NCr mouse assessed as reduction of bioluminescent signal at 50 mg/kg, po bid measured on day 9 post-tumor cell implantation relative to control; format: functional, BaF3
[34] = Antitumor activity against mouse BA/F3 cells expressing Tel-JAK2-luc xenografted in NCr mouse assessed as reduction of bioluminescent signal at 30 mg/kg, po bid measured on day 9 post-tumor cell implantation relative to control; format: functional, BaF3
[35] = Inhibition of Stat5 phosphorylation in mouse Ba/F3 cells expressing TEL-Jak2; format: cell-based; settings: BaF3

T1 sequence (O60674 whole entry): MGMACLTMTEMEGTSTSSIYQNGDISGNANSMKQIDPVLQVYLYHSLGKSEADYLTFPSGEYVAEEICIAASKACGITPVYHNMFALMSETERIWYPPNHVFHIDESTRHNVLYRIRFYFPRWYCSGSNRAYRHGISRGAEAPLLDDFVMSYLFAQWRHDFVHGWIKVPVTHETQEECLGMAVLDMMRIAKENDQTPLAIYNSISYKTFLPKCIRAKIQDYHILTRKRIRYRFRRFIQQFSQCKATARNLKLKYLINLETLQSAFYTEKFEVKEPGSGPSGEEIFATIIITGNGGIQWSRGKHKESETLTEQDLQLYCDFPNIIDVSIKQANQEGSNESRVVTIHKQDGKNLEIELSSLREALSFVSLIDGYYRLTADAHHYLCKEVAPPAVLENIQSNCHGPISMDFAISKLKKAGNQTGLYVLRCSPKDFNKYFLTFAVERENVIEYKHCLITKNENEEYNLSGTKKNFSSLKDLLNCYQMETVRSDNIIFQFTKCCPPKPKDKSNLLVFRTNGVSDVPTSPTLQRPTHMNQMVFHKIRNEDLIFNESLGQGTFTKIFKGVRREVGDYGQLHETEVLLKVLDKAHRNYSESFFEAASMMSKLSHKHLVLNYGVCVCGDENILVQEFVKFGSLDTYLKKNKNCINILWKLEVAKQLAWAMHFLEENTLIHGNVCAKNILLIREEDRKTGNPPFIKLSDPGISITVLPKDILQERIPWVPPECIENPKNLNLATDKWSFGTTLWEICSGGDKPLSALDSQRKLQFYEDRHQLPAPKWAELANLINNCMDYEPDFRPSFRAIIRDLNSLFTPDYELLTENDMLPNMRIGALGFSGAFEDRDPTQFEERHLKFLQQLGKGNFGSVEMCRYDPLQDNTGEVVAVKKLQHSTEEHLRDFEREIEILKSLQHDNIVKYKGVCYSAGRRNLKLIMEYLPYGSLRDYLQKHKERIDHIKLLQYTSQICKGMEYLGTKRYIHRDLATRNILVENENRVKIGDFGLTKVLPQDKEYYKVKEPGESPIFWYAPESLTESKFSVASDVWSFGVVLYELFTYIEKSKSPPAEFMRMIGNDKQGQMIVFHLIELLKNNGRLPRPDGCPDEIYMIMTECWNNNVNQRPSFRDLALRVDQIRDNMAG
Sequence of High affinity nerve growth factor receptor (P04629 whole entry): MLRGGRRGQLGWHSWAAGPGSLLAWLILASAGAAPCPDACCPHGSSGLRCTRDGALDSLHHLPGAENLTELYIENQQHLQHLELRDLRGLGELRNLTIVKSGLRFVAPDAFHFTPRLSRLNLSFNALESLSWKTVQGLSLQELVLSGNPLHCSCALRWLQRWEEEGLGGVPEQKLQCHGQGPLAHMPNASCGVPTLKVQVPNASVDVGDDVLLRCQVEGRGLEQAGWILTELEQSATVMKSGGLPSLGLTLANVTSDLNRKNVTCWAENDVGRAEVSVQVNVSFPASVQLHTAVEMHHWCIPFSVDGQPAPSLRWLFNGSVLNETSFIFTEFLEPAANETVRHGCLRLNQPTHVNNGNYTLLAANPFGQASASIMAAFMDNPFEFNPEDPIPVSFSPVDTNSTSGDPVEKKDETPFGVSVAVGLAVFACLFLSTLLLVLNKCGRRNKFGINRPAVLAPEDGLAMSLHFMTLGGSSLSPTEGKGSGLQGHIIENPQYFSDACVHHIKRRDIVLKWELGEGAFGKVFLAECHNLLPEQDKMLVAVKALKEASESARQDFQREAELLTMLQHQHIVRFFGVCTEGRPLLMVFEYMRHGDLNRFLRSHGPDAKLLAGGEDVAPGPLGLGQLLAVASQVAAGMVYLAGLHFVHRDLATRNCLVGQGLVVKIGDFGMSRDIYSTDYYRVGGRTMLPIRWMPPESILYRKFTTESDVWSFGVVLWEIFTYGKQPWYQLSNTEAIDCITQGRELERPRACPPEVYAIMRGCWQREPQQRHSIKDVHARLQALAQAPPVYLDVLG

IC50 [1]: 9 nM
IC50 [2]: 488 nM
IC50 [3]: > 30000 nM
solubility thermodynamic [5]: > 460 µM
logD [6]: < 2.6
SMILES: C[C@H](Nc1ncc(Cl)c(Nc2cc(N(C)C)[nH]n2)n1)c1ncc(F)cn1
GI50 [4]: 1200 nM

IC50 [1]: 16 nM
IC50 [2]: 815 nM
IC50 [3]: > 30000 nM
solubility thermodynamic [5]: > 460 µM
logD [6]: < 2.6
SMILES: C[C@H](Nc1ncc(F)c(Nc2cc(N(C)C)[nH]n2)n1)c1ncc(F)cn1
GI50 [4]: 2200 nM

IC50 [1]: < 3 nM
IC50 [2]: < 3 nM
IC50 [3]: 30 nM
clearance (Liver microsomes): 10 µL/min/mg
bioavailability [7]: 64%
clearance [8]: 18 mL/min/kg
Vd [9]: 1.4 L/kg
half-life [10]: 1.1 h
solubility thermodynamic [5]: > 460 µM
logD [6]: < 2.6
SMILES: Cc1cc(Nc2cc(N3CCOCC3)nc(N[C@@H](C)c3ncc(F)cn3)n2)[nH]n1
GI50 [4]: 50 nM

IC50 [1]: < 3 nM
IC50 [2]: < 3 nM
IC50 [3]: > 30000 nM
bioavailability [7]: 34%
clearance [8]: 14 mL/min/kg
Vd [9]: 1.7 L/kg
half-life [10]: 1.9 h
solubility thermodynamic [5]: > 460 µM
logD [6]: < 2.6
SMILES: Cc1cc(Nc2nc(N[C@@H](C)c3ncc(F)cn3)nc(N3CCOCC3)c2F)n[nH]1
GI50 [4]: 13 nM

IC50 [1]: < 3 nM
IC50 [2]: 9 nM
IC50 [3]: 11800 nM
clearance (Liver microsomes): 16 µL/min/mg
bioavailability [7]: 20%
clearance [8]: 221 mL/min/kg
Vd [9]: 4.6 L/kg
half-life [10]: 0.36 h
solubility thermodynamic [5]: > 460 µM
logD [6]: < 2.6
SMILES: Cc1cc(Nc2nc(N[C@@H](C)c3ncc(F)cn3)nc(N3CCOCC3)c2Cl)n[nH]1
GI50 [4]: 17 nM

IC50 [1]: 10 nM
IC50 [2]: 30 nM
IC50 [3]: 200 nM
solubility thermodynamic [5]: > 460 µM
logD [6]: < 2.6
SMILES: COc1cc(Nc2cc(N3CCOCC3)nc(N[C@@H](C)c3ncc(F)cn3)n2)n[nH]1
GI50 [4]: 73 nM

IC50 [1]: 4 nM
IC50 [2]: 8 nM
IC50 [3]: 30500 nM
solubility thermodynamic [5]: > 460 µM
logD [6]: < 2.6
SMILES: COc1cc(Nc2nc(N[C@@H](C)c3ncc(F)cn3)nc(N3CCOCC3)c2F)n[nH]1
GI50 [4]: 240 nM

IC50 [1]: 4 nM
IC50 [2]: 90 nM
IC50 [3]: 2960 nM
solubility thermodynamic [5]: > 460 µM
logD [6]: < 2.6
SMILES: COc1cc(Nc2nc(N[C@@H](C)c3ncc(F)cn3)nc(N3CCOCC3)c2Cl)n[nH]1
GI50 [4]: 1300 nM

AUC(0-t) at 24 h [11]: 33.5 µM·h
clearance [8]: 19 mL/min/kg
Vd [9]: 3 L/kg
half-life [10]: 2.9 h
solubility thermodynamic [5]: > 460 µM
logD [6]: < 2.6
SMILES: Cc1cc(Nc2nc(N[C@H](C)c3ncc(F)cn3)ncc2Cl)n[nH]1
GI50 [4]: 11000 nM

IC50 [1]: < 3 nM
IC50 [2]: 58 nM
IC50 [3]: 1360 nM
clearance (Liver microsomes): 11 µL/min/mg
bioavailability [7]: 47%
clearance [8]: 8.9 mL/min/kg
Vd [9]: 3.6 L/kg
half-life [10]: 4.7 h
clearance [12]: 13.5 mL/min/kg
half-life [13]: 1.5 h
half-life [14]: 2 h
Vd [15]: 1.1 L/kg
AUC(0-t) at 12 h [16]: 57.6 µM·h
bioavailability [17]: 100%
clearance [18]: 2 mL/min/kg
half-life [19]: 6.9 h
half-life [20]: 8.5 h
Vd [21]: 1 L/kg
AUC(0-t) at 12 h [22]: 350 µM·h
bioavailability [23]: 100%
solubility thermodynamic [5]: > 460 µM
logD [6]: < 2.6
IC50 [25]: 3 nM
IC50 [35]: 46 nM
SMILES: Cc1cc(Nc2nc(N[C@@H](C)c3ncc(F)cn3)ncc2Cl)n[nH]1 [AZD-1480]
GI50 [4]: 60 nM
GI50 (HEL): 390 nM
GI50 [24]: 54 nM
GI50 [26]: 16 nM
GI50 [27]: 2100 nM
GI50 [28]: 700 nM
GI50 [29]: 2000 nM
Activity (Mus musculus [30]): >70%
Activity (Mus musculus [31]): 90%
Activity (Mus musculus [32]): 50%
Activity [33]: 44
Activity [34]: 9
